Drawing on patent US9018388B2, “Pesticidal compositions and processes related thereto” (Dow AgroSciences LLC, priority 2012, dated 2015), this text covers pest or weed control for 36 compounds.

Test [1] deals with Beet Armyworm (BAW) (Spodoptera exigua). Put plainly: Bioassay on beet armyworm (BAW), 128-well diet tray assay. It counts as in vivo. The conditions noted are these: Spodoptera exigua; Beet armyworm, 50 μg/cm^2; read-out: % Mortality BAW 50 μg/cm^2. The method, then: (§1) Bioassays on Beet Armyworm (“BAW”) and Corn Earworm (“CEW”)
(§2) Certain molecules disclosed in this document were tested against BAW and CEW using procedures described in the following examples. In the reporting of the results, the “BAW & CEW Rating Table” was used (See Table Section).
Bioassays on BAW (Spodoptera exigua)
Bioassays on BAW were conducted using a 128-well diet tray assay. One to five second instar BAW larvae were placed in each well (3 mL) of the diet tray that had been previously filled with 1 mL of artificial diet to which 50 μg/cm^2 of the test compound (dissolved in 50 μL of 90:10 acetone-water mixture) had been applied (to each of eight wells) and then allowed to dry. Trays were covered with a clear self-adhesive cover and held at 25° C., 14:10 light-dark for five to seven days. Percent mortality was recorded for the larvae in each well; activity in the eight wells was then averaged. The results are indicated in the table entitled “Table 5: Biological Results” (See Table Section).

Test [2] concerns Corn Earworm (CEW) (Helicoverpa zea). Put plainly: Bioassay on corn earworm (CEW), 128-well diet tray assay. It counts as in vivo. The conditions noted are these: Helicoverpa zea; Corn earworm, 50 μg/cm^2; read-out: % Mortality CEW 50 μg/cm^2. Here is the method: as §1, §2
Bioassays on CEW (Helicoverpa zea)
Bioassays on CEW were conducted using a 128-well diet tray assay. One to five second instar CEW larvae were placed in each well (3 mL) of the diet tray that had been previously filled with 1 mL of artificial diet to which 50 μg/cm^2 of the test compound (dissolved in 50 μL of 90:10 acetone-water mixture) had been applied (to each of eight wells) and then allowed to dry. Trays were covered with a clear self-adhesive cover and held at 25° C., 14:10 light-dark for five to seven days. Percent mortality was recorded for the larvae in each well; activity in the eight wells was then averaged. The results are indicated in the table entitled “Table 5: Biological Results” (See Table Section).

As to `Cc1cccc(C)c1/N=C(/N/N=C/c1ccc(-c2ncn(-c3ccc(OC(F)(F)F)cc3)n2)cc1)SCC(=O)NCCCN(C)C(=O)OC(C)(C)C` [Compound 61C], the pest or weed control at 50 µg/cm2, 50 µg/cm2 in test [1] and in test [2] was 50 to 100% each time.

Regarding `Cc1cccc(C)c1/N=C(/N/N=C/c1ccc(-c2ncn(-c3ccc(OC(F)(F)F)cc3)n2)cc1)SCC(=O)NCC(N)C(=O)O` (stereo not drawn) [Compound 63C], the pest or weed control at 50 µg/cm2, 50 µg/cm2 in test [1] and in test [2] was 50 to 100% each time.

As for `COc1cc(C)c(/N=C(/N/N=C/c2ccc(-c3ncn(-c4ccc(OC(F)(F)F)cc4)n3)cc2)SCC(=O)NCCCN)c(C)c1` [Compound 64C], the pest or weed control at 50 µg/cm2, 50 µg/cm2 in test [1] and in test [2] was 50 to 100% in each case.

As to `Cc1cccc(C)c1/N=C(/N/N=C/c1ccc(-c2ncn(-c3ccc(OC(F)(F)F)cc3)n2)cc1)SCC(=O)N1CCNCC1` [Compound 67C], the pest or weed control at 50 µg/cm2, 50 µg/cm2 in test [1] and in test [2] was 50 to 100% in each case.

Regarding `O=C1CS/C(=N\N=C\c2ccc(-c3ncn(-c4ccc(OC(F)(F)F)cc4)n3)cc2)N1c1c(Cl)cccc1Cl` [Compound 70C], the pest or weed control at 50 µg/cm2, 50 µg/cm2 in test [1] and in test [2] was 50 to 100% throughout.

Regarding `Cc1cccc(C)c1N1C(=O)CS/C1=N\N=C\c1ccc(-c2ncn(-c3ccc(OC(F)(F)F)cc3)n2)cc1` [Compound 71C], the pest or weed control at 50 µg/cm2, 50 µg/cm2 in test [1] and in test [2] was 50 to 100% in each case.

As for `CCN(CC)c1ccc(-c2cs/c(=N\N=C\c3ccc(-c4ncn(-c5ccc(OC(F)(F)F)cc5)n4)cc3)n2-c2c(C)cccc2C)cc1` [Compound 74C], the pest or weed control at 50 µg/cm2, 50 µg/cm2 in test [1] and in test [2] was 50 to 100% each time.

In the case of `COc1cc(C)c(-n2c(C(=O)O)cs/c2=N\N=C\c2ccc(-c3ncn(-c4ccc(OC(F)(F)F)cc4)n3)cc2)c(C)c1` [Compound 80C], the pest or weed control at 50 µg/cm2, 50 µg/cm2 in test [1] and in test [2] was 50 to 100% throughout.

Regarding `Cc1cccc(C)c1/N=C1\SCC(=O)N1/N=C/c1ccc(-c2ncn(-c3ccc(OC(F)(F)F)cc3)n2)cc1` [Compound 81C], the pest or weed control at 50 µg/cm2, 50 µg/cm2 in test [1] and in test [2] was 50 to 100% throughout.

`O=C1CS/C(=N\N=C\c2ccc(-c3ncn(-c4ccc(OC(F)(F)F)cc4)n3)cc2)N1c1c(F)cccc1F` [Compound 89C]: the pest or weed control at 50 µg/cm2, 50 µg/cm2 in test [1] and in test [2] was 50 to 100% throughout.

On to `Cc1cccc(Cl)c1N1C(=O)CS/C1=N\N=C\c1ccc(-c2ncn(-c3ccc(OC(F)(F)F)cc3)n2)cc1` [Compound 93C], for which the pest or weed control at 50 µg/cm2, 50 µg/cm2 in test [1] and in test [2] was 50 to 100% each time.

On to `CCc1ccccc1N1C(=O)CS/C1=N\N=C\c1ccc(-c2ncn(-c3ccc(OC(F)(F)F)cc3)n2)cc1` [Compound 94C], for which the pest or weed control at 50 µg/cm2, 50 µg/cm2 in test [1] and in test [2] was 50 to 100% each time.

Take `CN(C)c1cccc(N2C(=O)CS/C2=N\N=C\c2ccc(-c3ncn(-c4ccc(OC(F)(F)F)cc4)n3)cc2)c1` [Compound 97C]: the pest or weed control at 50 µg/cm2, 50 µg/cm2 in test [1] and in test [2] was 50 to 100% in each case.

As to `O=C1CS/C(=N\N=C\c2ccc(-c3ncn(-c4ccc(OC(F)(F)F)cc4)n3)cc2)N1c1c(Br)cccc1Br` [Compound 99C], the pest or weed control at 50 µg/cm2, 50 µg/cm2 in test [1] and in test [2] was 50 to 100% in each case.

Take `Cc1cccc(C)c1N1C(=O)CS/C1=N\N=C\c1ccc(-c2ncn(-c3ccc(OC(F)(F)C(F)(F)F)cc3)n2)cc1` [Compound 100C]: the pest or weed control at 50 µg/cm2, 50 µg/cm2 in test [1] and in test [2] was 50 to 100% throughout.

For `COc1cc(C)c(N2C(=O)CS/C2=N\N=C\c2ccc(-c3ncn(-c4ccc(OC(F)(F)F)cc4)n3)cc2)c(C)n1` [Compound 101C], the pest or weed control at 50 µg/cm2, 50 µg/cm2 in test [1] and in test [2] was 50 to 100% throughout.

For `O=C1CS/C(=N\N=C\c2ccc(-c3cn(-c4ccc(OC(F)(F)F)cc4)cn3)cc2)N1c1c(Cl)cccc1Cl` [Compound 102C], the pest or weed control at 50 µg/cm2, 50 µg/cm2 in test [1] and in test [2] was 50 to 100% throughout.

With `Cc1cccc(C)c1N1C(=O)CS/C1=N\N=C\c1ccc(-c2ccn(-c3ccc(OC(F)(F)F)cc3)n2)cc1` [Compound 103C], the pest or weed control at 50 µg/cm2, 50 µg/cm2 in test [1] and in test [2] was 50 to 100% in each case.

For `Cc1cccc(C)c1N1C(=O)CS/C1=N\N=C\c1ccc(-c2cnn(-c3ccc(OC(F)(F)F)cc3)c2)cc1` [Compound 104C], the pest or weed control at 50 µg/cm2, 50 µg/cm2 in test [1] and in test [2] was 50 to 100% in each case.

For the compound `Cc1cc(Cl)cc(C)c1N1C(=O)CS/C1=N\N=C\c1ccc(-c2ncn(-c3ccc(OC(F)(F)F)cc3)n2)cc1` [Compound 105C], the pest or weed control at 50 µg/cm2, 50 µg/cm2 in test [1] and in test [2] was 50 to 100% in each case.

Take `O=C1CS/C(=N\N=C\c2ccc(-c3ncn(-c4ccc(OC(F)(F)F)cc4)n3)cc2)N1c1ccccc1Cl` [Compound 106C]: the pest or weed control at 50 µg/cm2, 50 µg/cm2 in test [1] and in test [2] was 50 to 100% in each case.

Turning to `CCC(C)c1ccccc1N1C(=O)CS/C1=N\N=C\c1ccc(-c2ncn(-c3ccc(OC(F)(F)F)cc3)n2)cc1` (stereo not drawn) [Compound 108C], the pest or weed control at 50 µg/cm2, 50 µg/cm2 in test [1] and in test [2] was 50 to 100% throughout.

Consider `COC(=O)C1CC(c2ccc(/C=N/N=C3\SCC(=O)N3c3c(Cl)cccc3Cl)cc2)=NN1c1ccc(OC(F)(F)F)cc1` (stereo not drawn) [Compound 109C], for which the pest or weed control at 50 µg/cm2, 50 µg/cm2 in test [1] and in test [2] was 50 to 100% throughout.

As to `COC(=O)C1CC(c2ccc(/C=N/N=C3\SCC(=O)N3c3c(C)cccc3C)cc2)=NN1c1ccc(OC(F)(F)F)cc1` (stereo not drawn) [Compound 110C], the pest or weed control at 50 µg/cm2, 50 µg/cm2 in test [1] and in test [2] was 50 to 100% each time.

In the case of `Cc1ccccc1N1C(=O)CS/C1=N\N=C\c1ccc(-c2ncn(-c3ccc(OC(F)(F)F)cc3)n2)cc1` [Compound 113C], the pest or weed control at 50 µg/cm2, 50 µg/cm2 in test [1] and in test [2] was 50 to 100% each time.

As for `COc1ccc(N2C(=O)CS/C2=N\N=C\c2ccc(-c3ncn(-c4ccc(OC(F)(F)F)cc4)n3)cc2)c(C)c1` [Compound 114C], the pest or weed control at 50 µg/cm2, 50 µg/cm2 in test [1] and in test [2] was 50 to 100% throughout.

For the compound `CCOc1ccccc1N1C(=O)CS/C1=N\N=C\c1ccc(-c2ncn(-c3ccc(OC(F)(F)F)cc3)n2)cc1` [Compound 116C], the pest or weed control at 50 µg/cm2, 50 µg/cm2 in test [1] and in test [2] was 50 to 100% in each case.

For `Cc1cccnc1N1C(=O)CS/C1=N\N=C\c1ccc(-c2ncn(-c3ccc(OC(F)(F)F)cc3)n2)cc1` [Compound 117C], the pest or weed control at 50 µg/cm2, 50 µg/cm2 in test [1] and in test [2] was 50 to 100% in each case.

Regarding `Cc1cnccc1N1C(=O)CS/C1=N\N=C\c1ccc(-c2ncn(-c3ccc(OC(F)(F)F)cc3)n2)cc1` [Compound 118C], the pest or weed control at 50 µg/cm2, 50 µg/cm2 in test [1] and in test [2] was 50 to 100% each time.

With `CC(C)Cc1ccccc1N1C(=O)CS/C1=N\N=C\c1ccc(-c2ncn(-c3ccc(OC(F)(F)F)cc3)n2)cc1` [Compound 119C], the pest or weed control at 50 µg/cm2, 50 µg/cm2 in test [1] and in test [2] was 50 to 100% each time.

As to `CC(C)c1ccccc1N1C(=O)CS/C1=N\N=C\c1ccc(-c2ncn(-c3ccc(C(F)(F)F)cc3)n2)cc1` [Compound 120C], the pest or weed control at 50 µg/cm2, 50 µg/cm2 in test [1] and in test [2] was 50 to 100% in each case.

Consider `C/C(=N\N=C1/SCC(=O)N1c1ccccc1C(C)C)c1ccc(-c2ncn(-c3ccc(OC(F)(F)F)cc3)n2)cc1` [Compound 122C], for which the pest or weed control at 50 µg/cm2, 50 µg/cm2 in test [1] and in test [2] was 50 to 100% throughout.

For `CCc1cccnc1N1C(=O)CS/C1=N\N=C\c1ccc(-c2ncn(-c3ccc(OC(F)(F)F)cc3)n2)cc1` [Compound 123C], the pest or weed control at 50 µg/cm2, 50 µg/cm2 in test [1] and in test [2] was 50 to 100% in each case.

For the compound `O=C1CS/C(=N\N=C\c2ccc(-c3ncn(-c4ccc(OC(F)(F)F)cc4)n3)cc2)N1c1ccccc1OC(F)(F)F` [Compound 124C], the pest or weed control at 50 µg/cm2, 50 µg/cm2 in test [1] and in test [2] was 50 to 100% in each case.

With `CC(C)(C)c1ccccc1N1C(=O)CS/C1=N\N=C\c1ccc(-c2ncn(-c3ccc(OC(F)(F)F)cc3)n2)cc1` [Compound 125C], the pest or weed control at 50 µg/cm2, 50 µg/cm2 in test [1] and in test [2] was 50 to 100% in each case.

As to `O=C1CS/C(=N\N=C\c2ccc(-c3ncn(-c4ccc(OC(F)(F)F)cc4)n3)cc2)N1c1ccccc1OC(F)F` [Compound 126C], the pest or weed control at 50 µg/cm2, 50 µg/cm2 in test [1] and in test [2] was 50 to 100% throughout.
